Values quoted from earlier work as cited in patent publication US7994210B2, “Method of treating Down Syndrome” (priority 2004, dated 2011).
Where two headings read alike, the source gives them in different places.

Legend:
[1] = test system: beta-amyloid precursor protein (beta-APP)
[2] = biological target: acetylcholinesterase (Homo sapiens, UniProt P22303)
[3] = listed as (+)9-N-phenylcarbinol eseroline

Chain of acetylcholinesterase (P22303 32-614, species assumed): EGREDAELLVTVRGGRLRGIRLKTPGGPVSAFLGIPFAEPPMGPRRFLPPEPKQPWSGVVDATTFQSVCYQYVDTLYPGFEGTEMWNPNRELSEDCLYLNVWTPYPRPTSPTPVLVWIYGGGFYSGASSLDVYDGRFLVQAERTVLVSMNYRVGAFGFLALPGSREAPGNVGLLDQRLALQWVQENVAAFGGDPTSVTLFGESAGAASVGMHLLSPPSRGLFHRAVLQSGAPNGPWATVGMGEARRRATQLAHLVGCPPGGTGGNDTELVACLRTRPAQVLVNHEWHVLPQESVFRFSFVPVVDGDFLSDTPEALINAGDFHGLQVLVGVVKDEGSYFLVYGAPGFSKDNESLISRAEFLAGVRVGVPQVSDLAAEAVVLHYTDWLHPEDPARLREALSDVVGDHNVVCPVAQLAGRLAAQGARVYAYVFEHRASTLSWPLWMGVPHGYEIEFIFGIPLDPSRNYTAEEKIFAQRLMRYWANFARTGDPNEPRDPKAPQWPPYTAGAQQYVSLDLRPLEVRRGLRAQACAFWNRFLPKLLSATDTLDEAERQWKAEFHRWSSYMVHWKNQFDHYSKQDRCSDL

## CN1CC[C@]2(C)c3cc(OC(=O)Nc4ccccc4)ccc3N(C)[C@H]12 [(+)-Phenserine, (+)9-N-phenylcarbinol eseroline]
[1]
  production/formation of β-APP: reduces the production of β-APP
[1]; [3]
  production/formation of β-APP: inhibits β-APP production
[2]
  acetylcholinesterase inhibitor activity: lacking significant acetylcholinesterase inhibitor activity
[2]; [3]
  acetylcholinesterase inhibitor activity: lacks anticholinesterase activity
